# From patent US20220370396A1, “METHODS FOR MODULATING CONDITIONS OF THE EYE USING NOVEL LATANOPROST COMPOUND OPHTHALMIC COMPOSITIONS” (Somerset Therapeutics LLC, priority 2021, published 2022)
# Assay: Comparative stability testing of latanoprost formulations under refrigerated, room temperature and accelerated conditions
# Assay type: physicochemical
# Description: Formulations prepared according to the invention as described in Example 1 were tested for stability under refrigerated conditions ((2-8° C.), […] (25° C./60% relative humidity) and accelerated conditions (40° C./75% relative humidity) to determine stability of such formulations. The stability data of the composition provided in Table 1 of Example 1 was also compared with Reference Product (XALATAN®). Stability results are provided in Table 3.
# The stability data for the composition of Table 1, Example 1 (comprising the PCCC polyoxyl 40 hydrogenated castor oil), was compared to the composition of Table 2, Example 2, comprising the polysorbate-80.
substance,measurement,value
polysorbate-80,Effect of surfactant on stabilization of latanoprost formulations,marginal effect on stabilization
